These results are taken from patent US5766848A (Synaptic Pharmaceutical Corporation, priority 1994, dated 1998).

The subject of one assay is dog BGT-1. To be noted: read-out: IC50, dog VGT-1, inhibition of [3H]GABA uptake; oocytes (Yamauchi et al., 1992); except GABA estimated from percent inhibition at a single concentration; cited from earlier work.
Assay [1] addresses T1, human BGT-1 (Homo sapiens, UniProt P48065).
T1 sequence (P48065 1-614 C10Y): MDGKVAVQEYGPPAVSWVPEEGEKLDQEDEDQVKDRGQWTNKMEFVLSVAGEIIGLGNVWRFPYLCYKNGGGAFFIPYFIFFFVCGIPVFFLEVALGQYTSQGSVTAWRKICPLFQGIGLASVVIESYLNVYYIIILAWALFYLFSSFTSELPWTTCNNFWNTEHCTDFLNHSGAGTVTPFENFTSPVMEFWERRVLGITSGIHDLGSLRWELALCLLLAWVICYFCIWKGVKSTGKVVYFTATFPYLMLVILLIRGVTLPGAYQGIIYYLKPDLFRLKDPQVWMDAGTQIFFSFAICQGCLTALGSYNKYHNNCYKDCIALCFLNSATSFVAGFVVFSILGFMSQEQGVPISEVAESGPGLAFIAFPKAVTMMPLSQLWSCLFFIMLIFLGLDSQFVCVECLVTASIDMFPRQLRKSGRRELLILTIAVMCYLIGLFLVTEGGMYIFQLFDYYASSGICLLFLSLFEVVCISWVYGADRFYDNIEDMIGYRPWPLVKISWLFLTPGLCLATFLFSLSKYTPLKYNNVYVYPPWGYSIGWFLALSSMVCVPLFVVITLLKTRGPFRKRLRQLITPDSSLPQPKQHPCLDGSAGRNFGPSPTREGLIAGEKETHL
Put plainly: cell-based.
Protocol: (§2) Cells were grown under standard conditions (37° C., 5% CO2) in Dulbecco's modified Eagles's medium (GIBCO, Grand Island, N.Y.).
(§3) After 10 minutes the medium was removed and unlabeled drugs in HBS were added (450 μl/well). […] Plates were incubated at 37° C. for 10 minutes, then washed rapidly 3× with ice-cold HBS, using a 24-position plate washer (Brandel, Gaithersburg, Mass.; model PW-12). Cells were solubilized with 0.05% sodium deoxycholate/0.1N NaOH (0.25 ml/well), an aliquot neutralized with 1N HCl, and radioactivity was determined by scintillation counting. Protein was quantified in an aliquot of the solubilized cells using a BIO-RAD protein assay kit, according to the manufacturer's directions.
(§4) Data Analysis: Competition curves were conducted in duplicate, using 10 concentrations of unlabeled drug. […] All data throughout the paper represent means±SEM.
(§5) Cells were grown under standard conditions (37° C., 5% CO2) in DMEM (Dulbecco's modified Eagles's medium; GIBCO, Grand Island, N.Y.).
(§6) Cells grown in 24-well plates were washed 3× with HEPES-buffered saline (HBS, in mM: NaCl, 150; HEPES, 20; CaCl2, 1; glucose, 10; KCl, 5; MgCl2 1; pH 7.4) and allowed to equilibrate on a 37° C. slide warmer. After 10 minutes the medium was removed and unlabeled drugs in HBS were added (450 μl/well). […] Plates were incubated at 37° C. for 10 minutes, then washed rapidly 3× with ice-cold HBS, using a 24-position plate washer (Brandel, Gaithersburg, Mass.; model PW-12). Cells were solubilized with 0.05% sodium deoxycholate/0.1N NaOH (0.25 ml/well), an aliquot neutralized with 1N HCl, and radioactivity was determined by scintillation counting. Protein was quantified in an aliquot of the solubilized cells using a BIO-RAD protein assay kit, according to the manufacturer's directions.
(§7) Competition curves were conducted in duplicate, using 10 concentrations of unlabeled drug. […] All data throughout the paper represent means±S.E.M.

The next assay relates to Type 1 astrocytes. Description: Inhibition of [3H]GABA uptake in Type 1 astrocyte cultures. It is filed as cell-based, rat. To be noted: read-out: IC50, Type 1 astrocytes, inhibition of [3H]GABA uptake. Here is the method:
Preparation of primary rat astrocyte cell cultures: Primary glial cultures were established from newborn Sprague-Dawley rat brains. Brains minus cerebella were removed aseptically and carefully dissected free of meninges. […] The cells were dissociated by trituration through a serological pipet. Separate procedures were then used for the preparation of Type-1 and O-2A/Type-2 astrocyte cultures, as will now be described.
For the preparation of Type-1 astrocyte cultures, cells were plated onto uncoated 75 cm^2 flasks at low density (1 brain per 10 flasks, or approximately 8×10^4 cells/cm^2). The medium was changed the following day and twice a week thereafter.
(§1) Data represent means±SEM.

The test system of another assay is neuronal cultures. Put plainly: Inhibition of [3H]GABA uptake in primary rat neuronal cultures. It is filed as cell-based. Here is the method: Brains were removed aseptically from E17 embryonic Sprague-Dawley rats brains, carefully dissected free of meninges, and kept on ice. A single-cell suspension was made by mincing the brains, followed by trituration through a serological pipet. […] On day three cytosine β-D-arabinofuransoside (3 μM) was added to control the proliferation of non-neuronal cells. The cultures were used for transport assay approximately one week after plating.
as §1

The subject of another assay is brain synaptosomes. To be noted: Ali et al. (1985); cited from earlier work.
For assay [2] the following is noted: literature reports; cited from earlier work.
The next assay deals with T2, human GAT-3 (Homo sapiens, UniProt P48066).
T2 construct: expressed in transfected cells
T2 sequence (P48066 1-632): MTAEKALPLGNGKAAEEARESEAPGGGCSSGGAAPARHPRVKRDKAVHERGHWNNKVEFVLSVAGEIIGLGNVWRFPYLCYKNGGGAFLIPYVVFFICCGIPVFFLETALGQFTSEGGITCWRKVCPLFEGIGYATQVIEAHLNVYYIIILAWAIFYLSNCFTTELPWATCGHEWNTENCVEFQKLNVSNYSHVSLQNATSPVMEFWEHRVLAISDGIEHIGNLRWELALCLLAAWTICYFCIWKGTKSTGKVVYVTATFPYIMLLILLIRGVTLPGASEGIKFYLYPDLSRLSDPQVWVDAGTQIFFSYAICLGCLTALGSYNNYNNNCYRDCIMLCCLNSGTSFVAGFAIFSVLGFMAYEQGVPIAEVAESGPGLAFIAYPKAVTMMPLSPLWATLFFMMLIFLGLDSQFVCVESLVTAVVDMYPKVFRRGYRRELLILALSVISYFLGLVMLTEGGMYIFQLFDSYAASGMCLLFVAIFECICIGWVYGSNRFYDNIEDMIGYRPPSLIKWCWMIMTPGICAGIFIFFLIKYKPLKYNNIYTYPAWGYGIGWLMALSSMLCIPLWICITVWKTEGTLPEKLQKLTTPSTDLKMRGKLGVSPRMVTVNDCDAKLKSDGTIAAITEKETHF
Put plainly: Inhibition of [3H]GABA uptake, human GAT-3 stable LM(tk-) cell line. To be noted: read-out: IC50, human GAT-3, inhibition of [3H]GABA uptake, Table 9, means ± S.E.M. It counts as cell-based.

The target in assay [3] is T3, mouse GAT-2 (Mus musculus, UniProt P31651).
T3 sequence (P31651 1-614): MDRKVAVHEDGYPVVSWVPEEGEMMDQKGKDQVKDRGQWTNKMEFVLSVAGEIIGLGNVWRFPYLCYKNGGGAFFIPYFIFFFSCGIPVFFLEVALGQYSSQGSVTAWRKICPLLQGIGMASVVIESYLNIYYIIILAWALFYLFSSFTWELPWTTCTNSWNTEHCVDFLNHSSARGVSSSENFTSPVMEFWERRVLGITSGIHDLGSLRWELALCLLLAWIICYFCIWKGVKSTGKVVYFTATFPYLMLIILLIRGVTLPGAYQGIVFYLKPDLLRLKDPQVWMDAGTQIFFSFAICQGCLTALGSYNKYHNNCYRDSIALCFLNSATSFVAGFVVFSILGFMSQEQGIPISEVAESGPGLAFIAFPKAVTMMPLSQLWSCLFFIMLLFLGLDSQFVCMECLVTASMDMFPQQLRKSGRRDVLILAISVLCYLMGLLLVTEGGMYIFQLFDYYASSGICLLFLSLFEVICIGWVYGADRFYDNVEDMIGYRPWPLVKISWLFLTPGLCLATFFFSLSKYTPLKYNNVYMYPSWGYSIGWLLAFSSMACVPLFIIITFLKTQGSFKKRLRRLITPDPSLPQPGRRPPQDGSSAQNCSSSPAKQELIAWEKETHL
Set-up: host or cells: oocytes (Lopez-Corcuera et al., 1992). To be noted: read-out: IC50, mouse GAT-2, inhibition of [3H]GABA uptake; oocytes (Lopez-Corcuera et al., 1992); except GABA estimated from percent inhibition at one or two concentrations; cited from earlier work.

Assay [4] deals with T3, mouse GAT-2. To be noted: from Table 1.
A further assay deals with GAT-1. To be noted: range over compounds and human/rat clones.
Another assay addresses human GAT-1 (Homo sapiens, UniProt P30531). To be noted: read-out: IC50, human GAT-1, inhibition of [3H]GABA uptake; Table 9; stable LM(tk-) cell line; means ± S.E.M.
Assay [5] concerns GAT-2 and GAT-3. To be noted: range over clones, regardless of species.
Protocol: as §5, §6, §7
The target in another assay is T4, rat GAT-2 (Rattus norvegicus, UniProt P31646).
T4 construct: expressed in transfected cells
T4 sequence (P31646 1-602): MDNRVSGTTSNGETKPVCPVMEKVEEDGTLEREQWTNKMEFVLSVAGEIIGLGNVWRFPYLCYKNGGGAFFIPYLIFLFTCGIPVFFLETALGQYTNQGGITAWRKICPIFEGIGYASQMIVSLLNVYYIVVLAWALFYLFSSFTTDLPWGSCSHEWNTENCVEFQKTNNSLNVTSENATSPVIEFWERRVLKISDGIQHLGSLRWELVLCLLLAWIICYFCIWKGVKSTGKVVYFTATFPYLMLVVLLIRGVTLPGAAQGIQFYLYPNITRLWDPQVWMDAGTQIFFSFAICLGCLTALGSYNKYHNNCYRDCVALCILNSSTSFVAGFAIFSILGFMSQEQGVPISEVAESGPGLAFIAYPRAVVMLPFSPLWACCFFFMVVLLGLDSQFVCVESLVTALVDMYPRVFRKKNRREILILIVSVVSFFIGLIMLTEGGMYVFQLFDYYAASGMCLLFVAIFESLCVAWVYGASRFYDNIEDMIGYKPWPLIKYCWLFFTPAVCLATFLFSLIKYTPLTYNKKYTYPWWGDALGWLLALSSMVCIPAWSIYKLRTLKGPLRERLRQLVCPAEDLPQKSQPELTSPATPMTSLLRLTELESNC
Put plainly: Inhibition of [3H]GABA uptake, rat GAT-2 stable LM(tk-) cell line. It counts as cell-based. To be noted: read-out: IC50, rat GAT-2, inhibition of [3H]GABA uptake, Table 9, means ± S.E.M.

The test system of the next assay is rat brain aggregates. Put plainly: Inhibition of [3H]GABA uptake in rat brain aggregates. It is filed as cell-based. To be noted: read-out: IC50, control, inhibition of [3H]GABA uptake in rat brain aggregates. The protocol:
Briefly, adult rat brains were removed from the skull and the cerebral cortex was dissected and placed in ice-cold HBS. […] The preparation was washed once by centrifugation, then resuspended in HBS.
The filters were washed with ice-cold HBS, punched into vials, and radioactivity determined by scintillation counting. Protein was determined in an aliquot of the aggregate preparation using the BIO-RAD protein assay kit.
as §1

The test system of assay [6] is GAT-2 and GAT-3. Put plainly: Inhibition of [3H]GABA uptake at cloned GAT-2 and GAT-3, text summary. To be noted: read-out: IC50s at GAT-2 and GAT-3 (range); range over clones, regardless of species.
Protocol: as §5, §6, §7
The target in assay [7] is T1, human BGT-1. To be noted: read-out: IC50, hBGT-1, inhibition of [3H]GABA uptake.
Protocol: as §2, §3, §4, §5, §6, §7
Where [8] appears, read: IC50, hBGT-1, inhibition of [3H]GABA uptake.
Where [9] appears, read: IC50, hBGT-1, inhibition of [3H]GABA uptake, stably transfected LM(tk-), 50 nM [3H]GABA, mean ± standard error of at least three experiments.
Where [10] appears, read: Rattus norvegicus, Astrocyte, 3 h.

Where “and” joins values, the source holds several entries; their conditions need not be identical. Equal entries are not always repeated. Structures can show the parent of a compound that is named as a salt. Where two headings read alike, the source gives them in different places.

Sequence of human GAT-1 (P30531 whole entry): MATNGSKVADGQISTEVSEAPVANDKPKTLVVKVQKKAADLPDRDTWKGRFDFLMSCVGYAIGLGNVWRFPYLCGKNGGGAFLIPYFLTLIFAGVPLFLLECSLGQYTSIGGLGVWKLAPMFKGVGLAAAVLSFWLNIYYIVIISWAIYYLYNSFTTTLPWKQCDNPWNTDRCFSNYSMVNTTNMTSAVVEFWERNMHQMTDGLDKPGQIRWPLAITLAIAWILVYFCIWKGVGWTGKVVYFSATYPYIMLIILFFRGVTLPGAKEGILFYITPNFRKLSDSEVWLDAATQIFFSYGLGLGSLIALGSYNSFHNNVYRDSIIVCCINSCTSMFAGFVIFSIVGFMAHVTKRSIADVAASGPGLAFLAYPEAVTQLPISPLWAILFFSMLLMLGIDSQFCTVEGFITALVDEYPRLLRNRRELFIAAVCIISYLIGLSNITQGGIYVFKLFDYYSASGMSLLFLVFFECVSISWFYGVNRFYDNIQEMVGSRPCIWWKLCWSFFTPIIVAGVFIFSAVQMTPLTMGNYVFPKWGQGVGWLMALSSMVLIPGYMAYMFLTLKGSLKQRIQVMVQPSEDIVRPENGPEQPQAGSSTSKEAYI
Protocol for human GAT-1: as §5, §6, §7
Protocol for human GAT-3: as §5, §6, §7
Protocol for rat GAT-2: as §5, §6, §7

Turning to `O=C(O)C1CCCNC1` (racemic) [(±)-nipecotic acid, (R,S)-nipecotic acid], the IC50 in the assay with dog BGT-1 was 4.7 mM.

With `N[C@@H]1CCC[C@H](C(=O)O)C1` (relative stereo) [ACHC, cis-3-aminocyclohexanecarboxylic acid], the IC50 at human BGT-1 [1] (setting [8]) is 1850 µM.

Regarding `N=C(N)NCCS(=O)(=O)O` [GES, guanidinoethanesulfonic acid], on human BGT-1 [1] (setting [9]), the IC50 came out at 1520 µM.

As for `NCC[C@H](N)C(=O)O` [L-DABA, L-(2,4)diaminobutyric acid], the IC50 in the assay on dog BGT-1 was 4.7 mM; against human BGT-1 [1] (setting [8]), 160 to 600 µM and 354 µM; with Type 1 astrocytes (setting [10]), 3400 µM.

In the case of `O=C(O)C1=CCCN(CCON=C(c2ccccc2)c2ccccc2)C1` [NNC-711, 1-(2-(((diphenylmethylene)amino)oxy)ethyl)-1,2,4,6-tetrahydro-3-pyridinecarboxylic acid hydrochloride], in the assay with neuronal cultures (read-out: specific [3H]GABA uptake that persisted in neuronal cultures), the activity at 10 µM turned out to be 31 ± 1%. Besides, on human BGT-1 [1] (setting [9]), the IC50 was in the range of 160 to 600 µM.

As to `O=C(O)C1CCCN(CCC=C(c2ccccc2)c2ccccc2)C1` (stereo not shown) [SK&F 89976-A, N-(4,4-diphenyl-3-butenyl)-3-piperidinecarboxylic acid], in the assay on brain synaptosomes, the “increase in potency over the parent compound (nipecotic acid or guvacine)” value was 20 fold. In addition, the “anticonvulsive activity in animals” value in [2] is listed as “display anticonvulsive activity”. The IC50 on human GAT-3 stood at 944 ± 259 µM.

On to `O=C(O)C1=CCCN(CCC=C(c2ccccc2)c2ccccc2)C1` [SK&F 100330-A], for which the “increase in potency over the parent compound (nipecotic acid or guvacine)” value with brain synaptosomes is 20 fold.

Regarding `C[N+](C)(C)CC(=O)O` [betaine], the IC50 on mouse GAT-2 [3] was 0.206 mM; against human BGT-1 [1] (setting [9]), 934 ± 22 µM; on human BGT-1 [1] (IC50 at hBGT-1 as stated in text, stable LM(tk-) cells, [3H]GABA uptake), 1000 to 2000 µM. In addition, on mouse GAT-2 [4], the “selectivity (potency) for mouse BGT-1 as compared to dog BGT-1” value is listed as 2 fold. Besides, the “selectivity (potency) for mouse BGT-1 as compared to human BGT-1” value on mouse GAT-2 [4] came out at 5 fold.

`O=C(O)C1=CCCNC1` [guvacine]: the IC50 at mouse GAT-2 [3] is 2.8 mM; at human GAT-3 it was 119 ± 24 µM; at human GAT-1 it was 14 ± 3 µM; on rat GAT-2, 58 ± 5 µM. Also, in the assay with GAT-1, the “IC50s at GAT-1 (range)” value was 14 to 39 µM. Moreover, in the assay with GAT-2 and GAT-3 [5], the “IC50s at GAT-2 and GAT-3 (range)” value is 102 to 378 µM.

Turning to `NCCS(=O)O` [hypotaurine], at human BGT-1 [1] (setting [8]), the IC50 is 160 to 600 µM and 380 µM.

With `O=C(CCc1ccc(O)cc1)c1c(O)cc(O)cc1O` [phloretin], on human BGT-1 [1] (setting [9]), the IC50 was 160 to 600 µM and 160 µM.

Regarding `C=C[C@H]1C[N@@]2CC[C@H]1C[C@@H]2[C@@H](O)c1ccnc2ccc(OC)cc12` [quinidine], the IC50 was 0.049 mM on mouse GAT-2 [3] and 1190 µM at human BGT-1 [1] (setting [8]).

Take `NCCS(=O)(=O)O` [taurine]: the IC50 in the assay on neuronal cultures (Neuron, read-out: IC50, Neurons, inhibition of [3H]GABA uptake) is 8.3 mM; against human BGT-1 [1] (setting [8]) it was 10600 µM; against human BGT-1 [1] (IC50 at hBGT-1 as stated in text) it was above 10000 µM; in the assay on Type 1 astrocytes (setting [10]) it was around 50 µM; in the assay on Type 1 astrocytes it was 47 ± 10 µM; in the assay on rat brain aggregates (Rattus norvegicus), 64 mM.

On to `NCCC(=O)O` [β-alanine], for which the IC50 is 1.9 mM at mouse GAT-2 [3]; 19 to 110 µM in the assay with GAT-2 and GAT-3 [6].

Turning to hydroxynipecotic acid, the IC50 on human BGT-1 [7] is 2.59 mM; with rat brain aggregates (absence of NNC-711), 0.01 ± 0.001 mM.
